The target of one series is T1, tau protein (Homo sapiens, UniProt P10636).
T1 construct: fused on or other part: Split fluorescent-protein halves for BiFC are fused to tau; In the published tau-BiFC line these are Venus VN173 and VC155
Briefly: Tau-BiFC cell model: inhibition of tau protein aggregation. The class given is cell-based. Conditions: for remaining activity at 3 µM / remaining activity at 10 µM: 48 h, Forskolin-only group = 100% tau protein-aggregated state; for remaining activity at 3 µM: compounds marked *: measured at 3 μM, read-out: Response; for IC50: Tau BiFC in cells, with Forskolin 30 μM, 48 hours; for remaining activity at 10 µM: compound 10 μM, BiFC fluorescence, read-out: Response (% @10 μM). In short, it runs like this: (§1)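 Aggregation was induced by 30 μM Forskolin co-applied with test compound for 48 h, with screening at 1, 3, 10 μM and dose-response at 0.03–30 μM. Nuclei were stained with Hoechst (2 μg/mL) and counted against Forskolin-only wells for cytotoxicity. Inhibition came from BiFC fluorescence relative to Forskolin-only versus untreated cells, with IC50 by nonlinear regression.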

The nature of series [1]: Liver microsome stability. The settings on record: amount of substrate remaining; compound 1 μM, 30 minutes, 37° C., NADPH. In kind it is in vitro ADME, rat. Here is the method:
(§2) The stability of liver microsomes due to the compounds prepared according to Examples 1 to 175 was confirmed. Specifically, four types of liver microsomes (human, dog, rat, and mouse, each 0.25 mg/mL), a 0.1 M phosphate buffer solution (pH 7.4), and each of the compounds at a concentration of 1 μM were mixed and pre-cultured at 37° C. for 5 minutes and further cultured at 37° C. for 30 minutes together with an NADPH generation system solution added thereto. Thereafter, the reaction was terminated by adding an acetonitrile solution containing an internal standard material (chloropropamide) and centrifuged for 5 minutes (14,000 rpm, 4° C.), and then a supernatant was injected into an LC-MS/MS system for analysis of substrate drugs to thereby evaluate metabolic stability due to 8 types of compounds.
(§3) The amount of the substrate remaining after the reaction was analyzed using the Shimadzu Nexera XR system and TSQ Vantage (Thermo). In an HPLC column, Kinetex XB-C18 (2.1 mm×100 mm, particle size of 2.6 μm; Phenomenex, USA) was used, and mobile phases were (A) distilled water containing 0.1% formic acid and (B) acetonitrile containing 0.1% formic acid. Analyst software (version 1.6.3) and Xcalibur (version 1.6.1) were used for data analysis.
(In general: Liver microsomes are a subcellular fraction often used to study metabolism.)

The nature of series [2]: Liver microsome stability. In kind it is in vitro ADME, mouse. The settings on record: amount of substrate remaining; compound 1 μM, 30 minutes, 37° C., NADPH. Here is the method:
as §2, §3

A further series has as its system Tau-BiFC cells. Put plainly: Cell viability (cytotoxicity) in tau-BiFC cells, count of stained nuclei. The class given is cell-based. Conditions: Forskolin-only group = 100% cell viability; for Cell viability: compounds marked *: measured at 3 μM; for Cell viability (% @10 μM): compound 10 μM. In short, it runs like this:
as §1

Series [3] in a line: Liver microsome stability. Conditions: amount of substrate remaining; compound 1 μM, 30 minutes, 37° C., NADPH. The class given is in vitro ADME, human. Here is the method:
as §2, §3

Here are results for 24 compounds from patent US12649723B2, “Carbonohydrazonoyl dicyanide compounds comprising 2 or more aryl or heteroaryl connected via linker and use thereof” (KOREA INSTITUTE OF SCIENCE AND TECHNOLOGY, priority 2020, dated 2026).

T1 sequence (P10636 2-441 isoform P10636-8 limits assumed): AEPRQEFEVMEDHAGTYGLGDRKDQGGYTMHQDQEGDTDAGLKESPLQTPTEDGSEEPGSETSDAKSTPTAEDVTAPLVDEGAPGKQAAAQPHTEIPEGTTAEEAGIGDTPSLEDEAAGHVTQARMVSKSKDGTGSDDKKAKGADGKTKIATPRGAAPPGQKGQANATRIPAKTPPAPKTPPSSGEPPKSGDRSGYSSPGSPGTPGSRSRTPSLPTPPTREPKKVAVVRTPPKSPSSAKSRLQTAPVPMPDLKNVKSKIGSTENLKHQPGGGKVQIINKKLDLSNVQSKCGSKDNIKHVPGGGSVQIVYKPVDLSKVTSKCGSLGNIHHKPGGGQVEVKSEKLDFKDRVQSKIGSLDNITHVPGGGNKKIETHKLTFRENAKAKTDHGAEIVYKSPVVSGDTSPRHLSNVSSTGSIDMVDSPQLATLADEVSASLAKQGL

A word on the IC50: it is the concentration that inhibits the measured activity by half. For the compound `COc1cc(NN=C(C#N)C#N)ccc1OCc1nc2ccccc2o1` [Compound 166, (4-(benzo[d]oxazol-2-ylmethoxy)-3-methoxyphenyl)carbonohydrazonoyl dicyanide], at tau protein, the remaining activity at 3 µM is -43% and 214 nM corresponded to half-maximal inhibition (IC50). Moreover, the “Rat (%)” value in series [1] worked out at 6.5%. Besides, in series [2], the “Mouse (%)” value is listed as 68.1%. In addition, the Cell viability in the series with Tau-BiFC cells is given as 121%. The “Human (%)” value in series [3] was determined as 6.6%.

Take `COc1cc(NN=C(C#N)C#N)ccc1OCc1nc2ccccc2[nH]1` [Compound 163, (4-((1H-benzo[d]imidazol-2-yl)methoxy)-3-methoxyphenyl)carbonohydrazonoyl dicyanide]: the remaining activity at 3 µM at tau protein was determined as 91%. In series [1], the “Rat (%)” value stood at 71.3%. Moreover, the “Mouse (%)” value in series [2] worked out at 59.5%. Moreover, the Cell viability in the series with Tau-BiFC cells is 106%. Besides, the “Human (%)” value in series [3] is recorded as 86.9%.

On to `COc1cc(NN=C(C#N)C#N)ccc1OCc1cccnn1` [Compound 164, (3-methoxy-4-(pyridazin-3-ylmethoxy)phenyl)carbonohydrazonoyl dicyanide], for which, on tau protein, the remaining activity at 3 µM was -1% and half-maximal inhibition (IC50) was put at 96 nM. Also, in series [1], the “Rat (%)” value came to 29.1%. Further, the “Mouse (%)” value in series [2] is reported as 24.6%. Further, in the series on Tau-BiFC cells, the Cell viability was 109%. In addition, the “Human (%)” value in series [3] amounted to 96.8%.

On to `Cc1cc(NN=C(C#N)C#N)ccc1OCc1cccnn1` [Compound 149, (3-methyl-4-(pyridazin-3-ylmethoxy)phenyl)carbonohydrazonoyl dicyanide], for which, at tau protein, the remaining activity at 3 µM was -8% and the IC50 is 185 nM. Besides, the “Rat (%)” value in series [1] was 82.2%. Also, the “Mouse (%)” value in series [2] is given as 87.9%. Also, the Cell viability in the series with Tau-BiFC cells was 124%. Moreover, the “Human (%)” value in series [3] stood at 93.7%.

Turning to `COc1cc(NN=C(C#N)C#N)ccc1OCc1cc[nH]n1` [Compound 168, (4-((1H-pyrazol-3-yl)methoxy)-3-methoxyphenyl)carbonohydrazonoyl dicyanide], at tau protein, the remaining activity at 3 µM is -17% and the IC50 amounted to 132 nM. The “Rat (%)” value in series [1] worked out at 44%. In series [2], the “Mouse (%)” value was determined as 77.8%. Besides, the Cell viability in the series on Tau-BiFC cells amounted to 123%. Further, the “Human (%)” value in series [3] amounted to 54.8%.

Take `COc1cc(NN=C(C#N)C#N)ccc1OCc1csc(C)n1` [Compound 171, (3-methoxy-4-((2-methylthiazol-4-yl)methoxy)phenyl)carbonohydrazonoyl dicyanide]: in series [1], the “Rat (%)” value is 80.3%. The “Mouse (%)” value in series [2] came out at 70.3%. Also, the “Human (%)” value in series [3] came out at 79.2%.

As to `Cc1cc(NN=C(C#N)C#N)ccc1OCc1nc2ccccc2s1` [Compound 157, (4-(benzo[d]thiazol-2-ylmethoxy)-3-methylphenyl)carbonohydrazonoyl dicyanide], on tau protein, the remaining activity at 3 µM was 8%. Besides, in series [1], the “Rat (%)” value was determined as 46%. The “Mouse (%)” value in series [2] is 33.2%. Besides, in the series with Tau-BiFC cells, the Cell viability stood at 124%. Further, the “Human (%)” value in series [3] is on record as 69.1%.

In the case of `N#CC(C#N)=NNc1ccc(NC(=O)c2nc3ccccc3s2)nc1` [Compound 31, (6-(benzo[d]thiazole-2-carboxamido)pyridin-3-yl)carbonohydrazonoyl dicyanide], at tau protein, the remaining activity at 10 µM was 0% and the IC50 was found to be 540 nM. In addition, the “Cell viability (% @10 μM)” value in the series on Tau-BiFC cells is listed as 114.3%. In series [3], the “Human (%)” value came out at 28.7%.

For `COc1cc(NN=C(C#N)C#N)ccc1OCc1cccs1` [Compound 172, (3-methoxy-4-(thiophen-2-ylmethoxy)phenyl)carbonohydrazonoyl dicyanide], in series [1], the “Rat (%)” value was determined as 65.3%. In series [2], the “Mouse (%)” value was determined as 57.3%. The “Human (%)” value in series [3] came out at 73.3%.

For `COc1cc(NN=C(C#N)C#N)ccc1OCc1cnn(C)c1` [Compound 174, (3-methoxy-4-((1-methyl-1H-pyrazol-4-yl)methoxy)phenyl)carbonohydrazonoyl dicyanide], the “Rat (%)” value in series [1] worked out at 54.3%. Moreover, the “Mouse (%)” value in series [2] is on record as >100%. Moreover, the “Human (%)” value in series [3] is 72%.

Consider `N#CC(C#N)=NNc1ccc(OCCc2ccc(C(F)(F)F)cc2)cc1` [Compound 121, (4-(4-(trifluoromethyl)phenethoxy)phenyl)carbonohydrazonoyl dicyanide], for which, on tau protein, the remaining activity at 10 µM stood at 3.4% and the IC50 came out at 4610 nM. Also, in the series with Tau-BiFC cells, the “Cell viability (% @10 μM)” value came to 72.7%.

Turning to `Cc1cnc(NC(=O)c2ccc(NN=C(C#N)C#N)c(F)c2)cn1` [Compound 56, (2-fluoro-4-(5-methylpyrazin-2-ylcarbamoyl)phenyl)carbonohydrazonoyl dicyanide], at tau protein, the remaining activity at 10 µM was found to be 0% and the IC50 was found to be 1850 nM. Besides, in the series on Tau-BiFC cells, the “Cell viability (% @10 μM)” value was found to be 129.9%.

With `N#CC(C#N)=NNc1ccc(NS(=O)(=O)c2cccs2)nc1` [Compound 62, (6-(thiophene-2-sulfonamido)pyridin-3-yl)carbonohydrazonoyl dicyanide], the remaining activity at 10 µM at tau protein came to 87.3%. Further, the “Cell viability (% @10 μM)” value in the series with Tau-BiFC cells was determined as 116.5%.

For the compound `Cc1ccc(NC(=O)c2ccc(NN=C(C#N)C#N)c(C)c2)cn1` [Compound 55, (2-methyl-4-(6-methylpyridin-3-ylcarbamoyl)phenyl)carbonohydrazonoyl dicyanide], on tau protein, the remaining activity at 10 µM worked out at 65.6%. Further, the “Cell viability (% @10 μM)” value in the series on Tau-BiFC cells is 116.1%.

With `Cc1cnc(NC(=O)c2ccc(NN=C(C#N)C#N)cc2C)cn1` [Compound 52, (3-methyl-4-(5-methylpyrazin-2-ylcarbamoyl)phenyl)carbonohydrazonoyl dicyanide], on tau protein, the remaining activity at 10 µM came to 24%. Moreover, the “Cell viability (% @10 μM)” value in the series on Tau-BiFC cells turned out to be 120.2%.

Consider `Cc1cnc(NC(=O)c2ccc(NN=C(C#N)C#N)cn2)cn1` [Compound 36, (6-(5-methylpyrazin-2-ylcarbamoyl)pyridin-3-yl)carbonohydrazonoyl dicyanide], for which the remaining activity at 10 µM at tau protein was determined as 35.9%. For the same compound, the “Cell viability (% @10 μM)” value with Tau-BiFC cells is listed as 86.9%.

Turning to `Cc1ccc(NC(=O)c2ccc(NN=C(C#N)C#N)cn2)cc1` [Compound 34, (6-(p-tolylcarbamoyl)pyridin-3-yl)carbonohydrazonoyl dicyanide], on tau protein, the remaining activity at 10 µM stood at 76% and the midpoint of inhibition, the IC50, lay at 9000 nM. Further, the “Cell viability (% @10 μM)” value with Tau-BiFC cells amounted to 88.1%.

With `COc1ccc(NC(=O)c2ccc(NN=C(C#N)C#N)cc2OC)cc1` [Compound 109, (3-methoxy-4-(4-methoxyphenylcarbamoyl)phenyl)carbonohydrazonoyl Dicyanide], at tau protein, the remaining activity at 10 µM amounted to 0% and the midpoint of inhibition, the IC50, lay at 1400 nM. Also, in the series with Tau-BiFC cells, the “Cell viability (% @10 μM)” value was 141.8%.

As for `COc1ccc(CCOc2ccc(NN=C(C#N)C#N)cn2)cc1` [Compound 102, (6-(4-methoxyphenethoxy)pyridin-3-yl)carbonohydrazonoyl dicyanide], on tau protein, the remaining activity at 10 µM amounted to 0% and the IC50 stood at 960 nM. The “Cell viability (% @10 μM)” value in the series with Tau-BiFC cells amounted to 54.5%.

Regarding `N#CC(C#N)=NNc1ccc(NC(=O)c2cscn2)nc1` [Compound 112, (6-(thiazole-4-carboxamido)pyridin-3-yl)carbonohydrazonoyl dicyanide], at tau protein, the remaining activity at 10 µM was found to be 0% and half-maximal inhibition (IC50) required 200 nM. Further, in the series on Tau-BiFC cells, the “Cell viability (% @10 μM)” value was 158.2%.

Consider `N#CC(C#N)=NNc1ccc(Oc2cccnc2)c(F)c1` [Compound 72, (3-fluoro-4-(pyridin-3-yloxy)phenyl)carbonohydrazonoyl dicyanide], for which, on tau protein, the remaining activity at 10 µM was found to be 0% and the IC50 worked out at 1990 nM. The “Cell viability (% @10 μM)” value in the series with Tau-BiFC cells was found to be 129.5%.

In the case of `N#CC(C#N)=NNc1ccc(Oc2ccccc2)c(C(F)(F)F)c1` [Compound 73, (4-phenoxy-3-(trifluoromethyl)phenyl)carbonohydrazonoyl dicyanide], the remaining activity at 10 µM on tau protein came to 0%. For the same compound, in the series on Tau-BiFC cells, the “Cell viability (% @10 μM)” value stood at 49.6%.

With `COc1cc(NN=C(C#N)C#N)ccc1C(=O)Nc1cncc(C)n1` [Compound 105, (3-methoxy-4-(6-methylpyrazin-2-ylcarbamoyl)phenyl)carbonohydrazonoyl dicyanide], at tau protein, the remaining activity at 10 µM worked out at 0% and the IC50 worked out at 400 nM. For the same compound, in the series with Tau-BiFC cells, the “Cell viability (% @10 μM)” value came to 142.9%.

With `N#CC(C#N)=NNc1ccc(OCCc2ccc(Cl)cc2)c(C(F)(F)F)c1` [Compound 133, (4-(4-chlorophenethoxy)-3-(trifluoromethyl)phenyl)carbonohydrazonoyl dicyanide], at tau protein, the remaining activity at 10 µM is 0%. In addition, the “Cell viability (% @10 μM)” value with Tau-BiFC cells was 39.7%.
